Numbers after ± are expanded uncertainties.
Legend:
[1] = xn = mol fraction of the nth substance listed; conditions: 101 kPa, Liquid, Vibrating tube method
[2] = 101 kPa, Liquid, Vibrating tube method

ClCCCl [1,2-dichloroethane] + C[N+](=O)[O-]
[1], x1 = 1
Conditions | mass density [kg/m3]
298.15 K | 1245.59 ± 0.81
308.15 K | 1230.96 ± 0.81
318.15 K | 1216.16 ± 0.81

CCCCCl [1-chlorobutane]
[2]
Conditions | mass density [kg/m3]
298.15 K | 881.17 ± 0.81
308.15 K | 870 ± 0.81
318.15 K | 858.67 ± 0.81

C[N+](=O)[O-] [nitromethane] + ClCCCl
mass density [kg/m3], [1]
Conditions | x2 = 0 | x2 = 0.1132 | x2 = 0.2235 | x2 = 0.3249 | x2 = 0.4672 | x2 = 0.5586 | x2 = 0.6264 | x2 = 0.7349 | x2 = 0.857 | x2 = 0.923
298.15 K | 1130.86 ± 0.93 | 1147.31 ± 0.9 | 1162.54 ± 0.88 | 1175.69 ± 0.86 | 1192.94 ± 0.84 | 1203.25 ± 0.83 | 1210.49 ± 0.83 | 1221.8 ± 0.82 | 1233.37 ± 0.81 | 1239.2 ± 0.81
308.15 K | 1117.24 ± 0.92 | 1133.59 ± 0.9 | 1148.71 ± 0.87 | 1161.77 ± 0.86 | 1178.89 ± 0.84 | 1189.11 ± 0.83 | 1196.29 ± 0.82 | 1207.48 ± 0.82 | 1218.91 ± 0.81 | 1224.67 ± 0.81
318.15 K | 1103.5 ± 0.91 | 1119.73 ± 0.89 | 1134.75 ± 0.87 | 1147.71 ± 0.85 | 1164.69 ± 0.84 | 1174.81 ± 0.83 | 1181.96 ± 0.82 | 1192.99 ± 0.82 | 1204.28 ± 0.81 | 1209.97 ± 0.81

C[N+](=O)[O-] [nitromethane] + ClCCCCl
[1], x2 = 0
Conditions | mass density [kg/m3]
298.15 K | 1130.9 ± 0.93
308.15 K | 1117.28 ± 0.92
318.15 K | 1103.53 ± 0.91

ClC(Cl)Cl [trichloromethane] + C[N+](=O)[O-]
[1], x1 = 1
Conditions | mass density [kg/m3]
298.15 K | 1473.42 ± 0.99
308.15 K | 1454.33 ± 0.98
318.15 K | 1434.98 ± 0.97

CC(Cl)(Cl)Cl [1,1,1-trichloroethane]
[2]
Conditions | mass density [kg/m3]
298.15 K | 1328.24 ± 0.93
308.15 K | 1311.45 ± 0.92
318.15 K | 1294.47 ± 0.91

CCCCCCl [1-chloropentane]
[2]
Conditions | mass density [kg/m3]
298.15 K | 877.09 ± 0.8
308.15 K | 866.97 ± 0.8
318.15 K | 856.73 ± 0.8

CCCCCCl [1-chloropentane] + C[N+](=O)[O-]
mass density [kg/m3], [1]
Conditions | x1 = 0.1043 | x1 = 0.1721 | x1 = 0.2575 | x1 = 0.3466 | x1 = 0.4525 | x1 = 0.5435 | x1 = 0.6864 | x1 = 0.8325 | x1 = 0.8859 | x1 = 1
298.15 K | 1075.06 ± 0.9 | 1045.39 ± 0.87 | 1014.58 ± 0.84 | 987.6 ± 0.83 | 960.73 ± 0.82 | 941.21 ± 0.81 | 916.34 ± 0.81 | 895.75 ± 0.81 | 889.18 ± 0.81 | 877.09 ± 0.8
308.15 K | 1062.09 ± 0.89 | 1032.77 ± 0.86 | 1002.33 ± 0.84 | 975.7 ± 0.83 | 949.19 ± 0.82 | 929.96 ± 0.81 | 905.49 ± 0.81 | 885.27 ± 0.81 | 878.82 ± 0.81 | 866.97 ± 0.8
318.15 K | 1048.99 ± 0.89 | 1020.02 ± 0.86 | 989.95 ± 0.84 | 963.67 ± 0.83 | 937.53 ± 0.82 | 918.59 ± 0.81 | 894.51 ± 0.81 | 874.65 ± 0.81 | 868.33 ± 0.81 | 856.73 ± 0.8

ClCCCCCl [1,4-dichlorobutane]
[2]
Conditions | mass density [kg/m3]
298.15 K | 1133.94 ± 0.8
308.15 K | 1123 ± 0.8
318.15 K | 1112 ± 0.8

ClC(Cl)Cl [trichloromethane]
[2]
Conditions | mass density [kg/m3]
298.15 K | 1473.42 ± 0.99
308.15 K | 1454.33 ± 0.98
318.15 K | 1434.98 ± 0.97

C[N+](=O)[O-] [nitromethane] + CCCCCl
mass density [kg/m3], [1]
Conditions | x2 = 0 | x2 = 0.1107 | x2 = 0.2174 | x2 = 0.3236 | x2 = 0.3932 | x2 = 0.4856 | x2 = 0.5569 | x2 = 0.6626 | x2 = 0.7722 | x2 = 0.8646
298.15 K | 1130.76 ± 0.93 | 1080.18 ± 0.89 | 1040.11 ± 0.86 | 1007.02 ± 0.84 | 987.92 ± 0.83 | 965.38 ± 0.82 | 949.92 ± 0.82 | 929.96 ± 0.81 | 911.75 ± 0.81 | 898.07 ± 0.81
308.15 K | 1117.14 ± 0.92 | 1067 ± 0.89 | 1027.27 ± 0.86 | 994.47 ± 0.84 | 975.54 ± 0.83 | 953.21 ± 0.82 | 937.92 ± 0.82 | 918.09 ± 0.81 | 900.15 ± 0.81 | 886.65 ± 0.81
318.15 K | 1103.39 ± 0.91 | 1053.7 ± 0.88 | 1014.29 ± 0.85 | 982.09 ± 0.84 | 963.01 ± 0.83 | 940.87 ± 0.82 | 925.76 ± 0.82 | 906.2 ± 0.81 | 888.4 ± 0.81 | 875.07 ± 0.81

ClCCCCl [1,3-dichloropropane]
[2]
Conditions | mass density [kg/m3]
298.15 K | 1180.1 ± 0.81
308.15 K | 1167.7 ± 0.81
318.15 K | 1155.21 ± 0.81

ClCCCCCl [1,4-dichlorobutane] + C[N+](=O)[O-]
mass density [kg/m3], [1]
Conditions | x1 = 0.0825 | x1 = 0.1759 | x1 = 0.2825 | x1 = 0.3815 | x1 = 0.4815 | x1 = 0.5911 | x1 = 0.6898 | x1 = 0.8208 | x1 = 0.9262 | x1 = 1
298.15 K | 1128.17 ± 0.9 | 1126.77 ± 0.88 | 1126.33 ± 0.85 | 1126.62 ± 0.84 | 1127.33 ± 0.83 | 1128.46 ± 0.82 | 1129.64 ± 0.81 | 1131.38 ± 0.81 | 1132.86 ± 0.81 | 1133.94 ± 0.8
308.15 K | 1114.98 ± 0.89 | 1113.92 ± 0.87 | 1113.86 ± 0.85 | 1114.44 ± 0.84 | 1115.42 ± 0.83 | 1116.8 ± 0.82 | 1118.18 ± 0.81 | 1120.16 ± 0.81 | 1121.81 ± 0.81 | 1123 ± 0.8
318.15 K | 1101.65 ± 0.89 | 1100.97 ± 0.87 | 1101.28 ± 0.85 | 1102.17 ± 0.83 | 1103.42 ± 0.82 | 1105.05 ± 0.82 | 1106.65 ± 0.81 | 1108.88 ± 0.81 | 1110.7 ± 0.8 | 1112 ± 0.8
